# Measurements from ChEMBL document CHEMBL3507680, “University of Dundee, Gates Library screen for HepG2 cell viability”.
# Assay: Human HepG2 cell viability assay in 384 well format
# Assay type: toxicity, cell-based
# Set-up: dose 125 nL, time 70.5 hour; concentration not given beside the values
# Settings: HepG2 cells, read-out: Inhibition
row,SMILES,cytotoxicity at 70.5 h [%]
1,CSCCC(=O)N1CC[C@@H](N2CCN(c3ccccc3F)CC2)[C@H](O)C1,33.8
2,CCc1nc2c(c(NCc3nc(-c4cccnc4)no3)n1)CCNCC2,-2.89
3,COCC1(CNC(=O)Nc2cc(F)ccc2OC)CCCC1,6.61
4,CC(C)C[C@H]1CN(c2nc3c(cc2C(N)=O)CCC3)CC[C@@]1(C)O,-7.33
5,CN1C[C@@H](n2cnc(-c3ccccc3)c2-c2nccn2C)C[C@H]1C(=O)O,-11.9
6,Cc1nn(C)cc1-c1ccnc(N(C)Cc2cnn(C)c2)n1,-2.26
7,CCOc1ccc(-c2ccc3c(c2)OCO3)cc1C(N)=O,5.58
8,COc1cccc(OC2CN(C(=O)c3c(C)noc3C)C2)c1,-9.88
9,O=C(CO)N1CC[C@@H](N2CCN(c3ccccc3F)CC2)[C@H](O)C1,6.39
10,CN(Cc1cccc(OCCO)c1)Cc1cccc2ncccc12,19.3
11,CN1CCN(Cc2cnn(-c3ccc(F)cc3)c2)[C@H]2CS(=O)(=O)C[C@H]21,-4.08
12,c1csc(CN(Cc2ccsc2)CC2CCCO2)n1 (configuration not stated),-1.84
13,CCN(Cc1ccncc1)C(=O)C1COc2c(cccc2OC)C1 (configuration not stated),6.05
14,O=C1NCC2(CCCN(C(=O)c3ccc4c(c3)OCCO4)CC2)O1 (configuration not stated),-2.63
15,COC(=O)N1CCN(C(=O)c2ccc(C)c(N3CCNC3=O)c2)CC1,14
16,CC(C)(O)CCc1cccc(C(=O)NCc2cnn3cccnc23)c1,-4.68
17,Cn1cc(CN2CCCC(CCc3ccc(F)c(F)c3)C2)cn1 (configuration not stated),-2.93
18,Cc1cc(C)n2nc(C(=O)N[C@H]3C[C@H]4CN(C)CCN4C3)cc2n1,-6.02
19,CC(C)CN1CCCC1c1ccc(C(=O)Nc2cn(C)nn2)s1 (configuration not stated),-0.657
20,CCn1ncc(C(=O)N2CCCN(CCCc3ccccc3)CC2)c1C,-2.97
21,CCCS(=O)(=O)N1CCC2(CC1)CC(=O)N(Cc1cc(F)cc(F)c1)C2,-7.19
22,C=C(C)COc1ccccc1C(=O)NCCc1cc(O)nc(C)n1,-11.9
23,CN(Cc1n[nH]c2c1CCCC2)c1nc(C2CC2)nc2c1CCNCC2,-1.06

row,SMILES,cytotoxicity at 70.5 h [%]
1,O=C(c1cnc(C2CC2)nc1O)N1CCN(Cc2ccccc2F)CC1,0.38
2,COCCN1CCCC2(CCN(c3nccnc3N(C)C)C2)C1=O (configuration not stated),-14.9
3,O=C(c1ccccc1C(F)(F)F)N1CC[C@@H](N2CCC(O)CC2)[C@H](O)C1,-1.82
4,CCc1nc(C)c(CN2CCN(c3ncnc4c(C)csc34)CC2)[nH]1,-14
5,CC(C)[C@H]1COC(=O)N1Cc1nccn1C1CC1,-3.35
6,Cc1ccc(F)c(NC(=O)CCC(=O)N(C)Cc2cc(C3CC3)[nH]n2)c1,-8.19
7,COc1ccc([C@@H]2CN(C(=O)CCn3cccn3)C[C@H]2NC(C)=O)cc1,6.76
8,Cc1cc(N2CCC(C(=O)O)(n3ccc(C(C)C)n3)CC2)nc(N)n1,6.37
9,OC1(CN2CCCCC2)CCN(c2ccc(C(F)(F)F)cn2)C1 (configuration not stated),-4.17
10,CN(C)C1CCCN(C(=O)CCc2csc(N)n2)CC1 (configuration not stated),1.01
11,Cc1ccc2oc(CN3CCC(C(=O)O)(n4ccnc4)CC3)c(C)c2c1,-16.8
12,CSc1ccc(C(C(=O)O)N2CCC(C(=O)N3CCCC3)CC2)cc1 (configuration not stated),-4.74
13,COCCNS(=O)(=O)c1cccc2c1CN(C(=O)c1cc(C)on1)CC2,-2.31
14,COc1cc(C)ccc1S(=O)(=O)N1CC[C@](C)(O)[C@H](C)C1,-5.97
15,Cc1cc(-c2nc(-c3ccccn3)nn2C2CCN(C)CC2)nc(C)n1,-3.28
16,Cc1c(CN2CCCC(C(=O)c3ccccc3)C2)cc(C#N)n1C (configuration not stated),-4.58
17,O=C(CC1CCc2ccccc21)NC1(C(=O)O)CCOCC1 (configuration not stated),-14
18,CC(NC(=O)CCCc1ccc(Cl)cc1)c1nnn[nH]1 (configuration not stated),-11.1
19,Cc1cccc(C(C(=O)N2CC(c3ccccn3)C2)N(C)C)c1 (configuration not stated),-3.41
20,CC(O)c1cn(CC2CCN(C(=O)CN(C)C(C)C)CC2)nn1 (configuration not stated),-6.36
21,O=C(c1ccnc(-n2cnnc2)c1)N1CCCC2(CCOC2)C1 (configuration not stated),-2.19
22,COc1cc2cc(C(=O)NC(C)C(=O)O)n(C)c2c(OC)c1OC (configuration not stated),-7.07
23,O=C(C1CC(=O)N(c2ccccc2)C1)N1CCC2(CC1)OCCO2 (configuration not stated),5.21

row,SMILES,cytotoxicity at 70.5 h [%]
1,CCCc1cc(=O)[nH]c(-c2ccccc2CN(C)CCn2cccn2)n1,5.03
2,Cc1ccc(-n2ncc3c2CCCC3N)cc1C (configuration not stated),-4
3,Cc1nc2sccn2c1C(=O)N1CCc2c(nc(N)[nH]c2=O)C1,-4.21
4,O=S(=O)(c1cc(F)ccc1F)N1CCCC1c1ccco1 (configuration not stated),-6.01
5,O=c1[nH]c(NC2CCCC2)nc2nccc(-c3cccs3)c12,-4.19
6,COCCCn1c(CN2CCCCO2)cnc1S(=O)(=O)C1CCCC1,-4.4
7,Cc1noc(-c2ccc(N[C@H]3CCCCNC3=O)nc2)n1,-1.42
8,CO[C@@]1(C)C[C@@H](O)C12CCN(C(=O)C1(c3ccccc3F)CC1)CC2,9.4
9,CC(C)CNC(=O)CN(C)S(C)(=O)=O,0.607
10,Cc1cc(=O)[nH]c(SC(C)C(=O)N2CCCN(C3CCCC3)CC2)n1 (configuration not stated),6.46
11,CC(=O)N[C@H]1CN(CC(=O)NCc2ccccc2C)C[C@@H]1C(C)C,-4.45
12,CCC(NC(=O)C1CCN(S(C)(=O)=O)CC1)c1ccc(OC)cc1 (configuration not stated),-4.59
13,CN(Cc1ccoc1)C(=O)C1CC(=O)N(Cc2ccncc2)C1 (configuration not stated),-8.62
14,Cc1ccc(C(=O)NCCN2CCOCC2)cc1N(C)S(C)(=O)=O,1.25
15,Cc1c(C(=O)N(C)C)cccc1N(C)S(C)(=O)=O,0.872
16,CC(C)CN1CCC(NCCNc2cccnc2)CC1,-17.2
17,C/C=C(\C)CN1C[C@H](c2cccc(OC)c2)[C@@H](N)C1,-5.71
18,CCN(CC)C(=O)[C@@H]1C[C@H](N)CN1C(=O)c1cc2c([nH]c1=O)CCC2,14.4
19,CN1CCN(C(=O)C2CN(Cc3cc4ccccc4o3)CCN2)CC1 (configuration not stated),-3.72
20,CC(=O)Nn1ccc2c(nnc3c(-c4ccccc4)cnn32)c1=O,-28.5
21,C[C@@H]1CN(C(=O)CCCN2CCOCC2)CC[C@@]1(O)C1CCC1,-3.73
22,Cc1ccc2c(c1)OC(C)(C)CC2NC(=O)C1CCN(S(C)(=O)=O)CC1 (configuration not stated),-5.08
23,O=C(Nc1ccc2c(c1)OCO2)N1CCCC1c1ccco1 (configuration not stated),-4.29

row,SMILES,cytotoxicity at 70.5 h [%]
1,Cc1cccc(C(C(=O)NCCCc2nnc3ccccn23)N(C)C)c1 (configuration not stated),20.2
2,COc1ccc(CNC(=O)CCN2CCOC(C(F)(F)F)C2)cc1 (configuration not stated),-7.56
3,Cc1nc(O)cc(CNC(=O)CC[C@@H]2CCCN3CCCC[C@H]23)n1,-9.94
4,NCCO[C@H]1C[C@@H](O)C12CCN(C(=O)CCOc1ccccc1)CC2,-0.434
5,COc1cccc2c1OCC(CNC(=O)CSc1ccccn1)C2 (configuration not stated),-6.38
6,COc1ccc(CN(C)c2nccc(-c3cn(C)nc3C)n2)cc1,13.2
7,CCN(Cc1noc(CC(C)C)n1)Cc1ccccc1OCC(=O)O,-2.84
8,CCc1ccc(NC(=O)C2CCN(C(=O)COC)CC2)cc1,-9.16
9,CC1(C)CN(C(=O)CC2CCC2)C[C@]1(C)O,-2.02
10,COc1ccc(NC(=O)Cn2nc(C)c(C)cc2=O)cc1Cl,0.971
11,COCCOC1CCN(C(C(=O)O)c2ccc(F)c(Cl)c2)CC1 (configuration not stated),-9.08
12,Cc1nnsc1C(=O)N1C[C@H]2CC[C@@H]1CN(c1cnccn1)C2,-5.21
13,OCC1(Cc2ccc(F)cc2F)CCCN(Cc2ccncc2)C1 (configuration not stated),-5.76
14,COc1cccc2c1OCC(CNC(=O)Cc1c(C)nc(N)nc1C)C2 (configuration not stated),-7.12
15,CC(C)(C)C(=O)NCCNc1cc(N2CCCC2)ncn1,-8.01
16,COc1cccc(NC(=O)c2cc3c([nH]c2=O)CCCC3=O)c1,-8.19
17,Cc1ccc(OCC(C)NS(C)(=O)=O)cc1C (configuration not stated),-3.53
18,Cc1cc(CN2CCc3nc(C)n(C)c(=O)c3CC2)[nH]n1,-5.95
19,COCCn1cnnc1CCNc1cc(C)nc2ccnn12,-2.09
20,CC(C)(C)n1ncc2c1NC(=O)CC2c1cccc(F)c1 (configuration not stated),3.13
21,COc1ccc(-c2n[nH]cc2CN(C)CCc2scnc2C)c(F)c1,1.84
22,Cc1nn(C)c2nc(N3CCC(C(O)Cc4ccccc4)CC3)sc12 (configuration not stated),-2.11
23,CCC(CO)N(CC=C(C)C)Cc1ccsc1 (configuration not stated),-2.49

row,SMILES,cytotoxicity at 70.5 h [%]
1,COc1ccc(C(C)NC(=O)C2CCN(S(C)(=O)=O)CC2)cc1C (configuration not stated),-4.77
2,CCCn1ncc(C(=O)N2CCCC(OCc3ccccn3)C2)c1C (configuration not stated),-4.73
3,CCc1cc(NCCCC2CCOC2)n2nccc2n1 (configuration not stated),-1.93
4,Fc1ccc(NC2CCCN(Cc3ccncc3)C2)cc1 (configuration not stated),26.1
5,Cc1nc2c(cc1C(=O)Nc1ccccc1Cl)c(=O)n(C)c(=O)n2C,-9.88
6,CCS(=O)(=O)N1CCN(c2cc(-n3cnc(C)c3C)nc(C)n2)CC1,-2.19
7,CCCNC(=O)C(C)Oc1ccc(F)cc1 (configuration not stated),-12.9
8,COc1ccc(OC)c(NC(=O)c2cc3c([nH]c2=O)CCCC3=O)c1,-4.78
9,CC(C)COc1ccccc1CN(C)C(=O)c1cc(=O)[nH]c(=O)[nH]1,-8.79
10,CC(C1CCN(Cc2cnn(C)c2C2CC2)CC1)N(C)C (configuration not stated),-7.09
11,Cc1nc(CCN(C)C(=O)CN2CCCCCC2)no1,-9.68
12,CCN(Cc1ccc(S(C)(=O)=O)cc1)Cc1nc(COC)no1,-11.1
13,c1cnn(CC2CN(Cc3csc(C4CCCCC4)n3)CCO2)c1 (configuration not stated),-0.469
14,CCNc1cc2c(nn1)CCN(C(=O)c1c(C)noc1C)C2,-2.94
15,c1ccc(-c2nc(CN3CCOC(Cn4cncn4)C3)cs2)cc1 (configuration not stated),-3.05
16,CCNc1cc2c(nn1)CCN(C(=O)Cc1ccc(C)s1)C2,0.997
17,Cc1cnn(CCC(=O)NC2CCc3nc(C)cn3C2)c1 (configuration not stated),-3.94
18,O=C(CCCn1cncn1)NC1CCc2nccn2C1 (configuration not stated),-0.0953
19,CCc1cnc(CN(C(C)=O)C2CCN(CC(=O)N3CCCC3)C2)o1 (configuration not stated),-4.28
20,Cc1cccc(OCCNC(=O)CN2CCN(C)CC2C)c1 (configuration not stated),25.2
